# In patent US20220016215A1, “GIP RECEPTOR AGONIST PEPTIDE COMPOUNDS AND USES THEREOF” (TAKEDA PHAARMACEUTICAL COMPANY LIMITED, priority 2018, published 2022):
# “And” between values parts separate entries of the source, which are not always exact repeats. Identical values can stand only once. Marks after values point to notes of the source that are not given here.
# Legend:
# human GIPR = target: T1, human GIPR (Homo sapiens, UniProt P48546); assay: Agonist activity on human GIPR, CRE-luciferase reporter assay (increase in intracellular cAMP as indicator); format: cell-based; settings: GLP1R EC50 / GIPR EC50
# T1 construct: expressed in transfected cells
# T1 sequence (P48546 22-466): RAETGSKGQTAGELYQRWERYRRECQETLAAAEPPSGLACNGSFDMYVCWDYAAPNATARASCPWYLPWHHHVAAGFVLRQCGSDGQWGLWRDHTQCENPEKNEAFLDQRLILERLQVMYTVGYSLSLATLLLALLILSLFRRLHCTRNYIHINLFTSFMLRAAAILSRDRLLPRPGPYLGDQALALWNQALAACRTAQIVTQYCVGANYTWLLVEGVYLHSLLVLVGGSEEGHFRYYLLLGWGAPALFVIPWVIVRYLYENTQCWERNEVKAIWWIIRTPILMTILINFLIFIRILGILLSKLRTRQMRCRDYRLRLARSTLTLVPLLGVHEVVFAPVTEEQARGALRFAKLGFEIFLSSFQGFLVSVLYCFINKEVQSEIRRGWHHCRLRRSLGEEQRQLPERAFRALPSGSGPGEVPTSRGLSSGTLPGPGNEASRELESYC
# Text: The human GIPR gene having an identical sequence to Genebank Accession No. U39231 is cloned into a pMSRα-neo vector to prepare hGIPR/pMSRα-neo.
# (2) Construction of Reporter Plasmid Expressing Cell
# Luciferase reporter gene with a cAMP-responsive sequence located upstream is transferred to a CHO-K1 cell to construct a CRE-LUC/CHO-K1 cell.
# (4) Transfer of Human GIPR Gene to CRE-LUC/CHO-K1 Cell and Obtaining of Expressing Cell
# The plasmid hGIPR/pMSRα-neo obtained in (1) is transferred to the CRE-LUC/CHO-K1 cell obtained in (2) to obtain a transformant. Subsequently, the cell line inducing the luciferase expression, hGIPR/CRE-LUC/CHO-K1 cell, is selected from the obtained transformant by adding GIP.
# 25 μL each of the hGIPR/CRE-LUC/CHO-K1 cell is inoculated in a 384-well white plate (Corning) in such a way as to provide 5×10^3 cells/well and may be cultured in a HamF12 medium containing 10% fetal bovine serum, 100 U/mL penicillin, and 100 μg/mL streptomycin in a CO2 incubator at 37° C. overnight. 5 μL of a medium containing a test compound is added to the cells and incubated for 4 hours at the indicated concentration in a CO2 incubator at 37° C. Steady-Glo (Promega) is added in amounts of 30 μL and shaken under light shielding. Twenty minutes later, luciferase activity is measured using a plate reader Envision (PerkinElmer). The GIPR agonist activity is calculated with increase in intracellular cAMP concentration as the indicator when the luciferase activity in the presence of 10 nM of GIP was 100% and the luciferase activity in the case of adding DMSO instead of the test compound was 0%.
# [1] = test system: morphine (0.6 mg/kg, s.c.)-induced emesis in ferrets; assay: Morphine-induced acute emetic model in male ferrets; format: in vivo, ferret; settings: for Retching Latency / Emesis (Retching + Vomiting) Duration / Retching Duration / Vomiting Duration / Fidget Duration / Licking Duration / Retching Frequency / Vomiting Frequency / Emesis (Retching + Vomiting) Latency / Vomiting Latency / Fidget Latency / Licking Latency / Emesis: Duration / Emesis: Frequency / Emesis: No. of animals (responder/used) / Fidget: Duration / Fidget: Frequency / Fidget: No. of animals (responder/used) / Licking: Duration / Licking: Frequency / Licking: No. of animals (responder/used) / Retching: Duration / Retching: Frequency / Retching: No. of animals (responder/used) / Vomiting: Duration / Vomiting: Frequency / Vomiting: No. of animals (responder/used) / Emesis: Latency / Fidget: Latency / Licking: Latency / Retching: Latency / Vomiting: Latency: ferrets, 10 nmol/kg s.c.; for Retching Latency: morphine (0.6 mg/kg, s.c.) administered 4 h after; for Retching Latency / Emesis (Retching + Vomiting) Duration / Retching Duration / Vomiting Duration / Fidget Duration / Licking Duration / Retching Frequency / Vomiting Frequency / Emesis (Retching + Vomiting) Latency / Vomiting Latency / Fidget Latency / Licking Latency: individual animals and Mean; for Retching Latency / Emesis (Retching + Vomiting) Latency / Vomiting Latency: no emetic response = 30 min; for Emesis (Retching + Vomiting) Duration / Retching Duration / Vomiting Duration / Fidget Duration / Licking Duration / Retching Frequency / Vomiting Frequency / Emesis (Retching + Vomiting) Latency / Vomiting Latency / Fidget Latency / Licking Latency: morphine administered 4 h after; for Emesis (Retching + Vomiting) Duration / Retching Duration / Vomiting Duration: cumulative total duration; for Fidget Latency / Licking Latency: no response = 30 min; for Emesis: Duration / Emesis: Frequency / Emesis: No. of animals (responder/used) / Fidget: Duration / Fidget: Frequency / Fidget: No. of animals (responder/used) / Licking: Duration / Licking: Frequency / Licking: No. of animals (responder/used) / Retching: Duration / Retching: Frequency / Retching: No. of animals (responder/used) / Vomiting: Duration / Vomiting: Frequency / Vomiting: No. of animals (responder/used) / Emesis: Latency / Fidget: Latency / Licking: Latency / Retching: Latency / Vomiting: Latency: morphine 0.6 mg/kg s.c. 4 h after drug; for Emesis: Latency / Fidget: Latency / Licking: Latency / Retching: Latency / Vomiting: Latency: non-responders counted as 30 min; for Comment: Anti-Emetic Activity (inhibition) on morphine-induced emesis: male ferrets, summary of the morphine experiments
# Experimental: Example 6—In-Vivo Effect of GIP Receptor Agonist Peptides on Emesis in Morphine Induced Emesis Model in Live Male Ferrets
# Effect of subcutaneously administered GIP receptor agonist peptide in morphine-induced acute emetic model.
# To evaluate the antiemetic effect, the GIP receptor agonist peptides other than natural human GIP were subcutaneously administered into male ferrets 30 minutes before morphine administration. […]. Up to 60 minutes after morphine administration, the condition of the ferrets was monitored to record the frequencies and time points of abdominal contraction motions, vomiting behaviors, licking with the tongue, and fidgety behavior occurring
# Effects of Subcutaneously Administered GIP Receptor Agonist Peptides in Morphine-Induced Acute Emetic Model
# 30 nmol/kg of Compounds 3 and 5 were dissolved with a vehicle (0.09 w/v % tween 80/10% DMSO/saline), respectively, to prepare test solutions. […] of the test solutions and the vehicle were subcutaneously administered to ferrets (4 in each group), respectively. At the time of each of 4 hours, after administration, 0.6 mg/kg of morphine was subcutaneously administered. […] See results in Tables 6, 7 and 8.
# (§1) 10 nmol/kg of each compound dissolved with a vehicle (0.09 w/v % tween 80/10% DMSO/saline) respectively, to prepare test solutions. […] of the test solutions and the vehicle were subcutaneously administered to ferrets (4 in each group), respectively. At the time of each of 4 hours, or 120 hours after administration, 0.6 mg/kg of morphine was subcutaneously administered. Up to 360 minutes after morphine administration, the condition of the ferrets was monitored to record the frequencies and time points of abdominal contraction motions, vomiting behaviors, licking with the tongue, and fidgety behavior occurring.
# as §1, with “30 nmol/kg” for “10 nmol/kg”, “80/10% DMSO/saline),respectively,” for “80/10% DMSO/saline) respectively,”
Substance,Selectivity Ratio (B/A) (human GIPR),Retching Latency [1] [min],Emesis (Retching + Vomiting) Duration [1],Retching Duration [1] [min],Vomiting Duration [1] [min],Fidget Duration [1],Licking Duration [1],Retching Frequency [1],Vomiting Frequency [1],Emesis (Retching + Vomiting) Latency [1] [min],Vomiting Latency [1] [min],Fidget Latency [1],Licking Latency [1],Emesis: Duration [1] [min],Emesis: Frequency [1],Emesis: No. of animals (responder/used) [1],Fidget: Duration [1],Fidget: Frequency [1],Fidget: No. of animals (responder/used) [1],Licking: Duration [1],further results
YAibEGTFISDYSIALDKI(Lys-(ethylene glycol)2-C15 diacid)QQDFVNWLLAQRG-OH [Compound 25],">100,000",30,0 min (4×) and 0.0 min,0,0,0 min (4×) and 0.0 min,0 min (4×) and 0.0 min,0,0,30,30,30 min (4×) and 30.0 min,30 min (4×) and 30.0 min,0.0 ± 0.0,0.0 ± 0.0,0/4 #,0.0 ± 0.0^ min,0.0 ± 0.0,0/4 #,0.0 ± 0.0^ min,Licking: Frequency [1]: 0.0 ± 0.0; Licking: No. of animals (responder/used) [1]: 0/4 #; Retching: Duration [1]: 0.0 ± 0.0 min; Retching: Frequency [1]: 0.0 ± 0.0; Retching: No. of animals (responder/used) [1]: 0/4 #; Vomiting: Duration [1]: 0.0 ± 0.0 min; Vomiting: Frequency [1]: 0.0 ± 0.0; Vomiting: No. of animals (responder/used) [1]: 0/4 #; Emesis: Latency [1]: 30.0 ± 0.0 min; Fidget: Latency [1]: 30.0 ± 0.0 min; Licking: Latency [1]: 30.0 ± 0.0 min; Retching: Latency [1]: 30.0 ± 0.0 min; Vomiting: Latency [1]: 30.0 ± 0.0 min; Comment: Anti-Emetic Activity (inhibition) on morphine-induced emesis [1]: 100% inhibition
YAibEGTFISDYSIELDK(Lys-(ethylene glycol)2-C15 diacid)AAQAFIEWLLAQGPSSGAPPPS-NH2 [Compound 20],">100,000",30,0 min (4×) and 0.0 min,0,0,0 min (4×) and 0.0 min,0 min (4×) and 0.0 min,0,0,30,30,30 min (4×) and 30.0 min,30 min (4×) and 30.0 min,0.0 ± 0.0,0.0 ± 0.0,0/4 #,0.0 ± 0.0^ min,0.0 ± 0.0,0/4 #,0.0 ± 0.0^ min,Licking: Frequency [1]: 0.0 ± 0.0; Licking: No. of animals (responder/used) [1]: 0/4 #; Retching: Duration [1]: 0.0 ± 0.0 min; Retching: Frequency [1]: 0.0 ± 0.0; Retching: No. of animals (responder/used) [1]: 0/4 #; Vomiting: Duration [1]: 0.0 ± 0.0 min; Vomiting: Frequency [1]: 0.0 ± 0.0; Vomiting: No. of animals (responder/used) [1]: 0/4 #; Emesis: Latency [1]: 30.0 ± 0.0 min; Fidget: Latency [1]: 30.0 ± 0.0 min; Licking: Latency [1]: 30.0 ± 0.0 min; Retching: Latency [1]: 30.0 ± 0.0 min; Vomiting: Latency [1]: 30.0 ± 0.0 min; Comment: Anti-Emetic Activity (inhibition) on morphine-induced emesis [1]: 100% inhibition
